Entries after “also recorded” stand apart in the source; their conditions may differ.
Key:
SGLT1 = assay: Loss of EGFR-chaperoned transporter SGLT1 from cells; type: cell-based; conditions: along with EGFR
Source text: (§1) It was reasoned that the activity seen in these susceptible tumor lines was largely due to EGFR KIFs. Tumors cells are always metabolically stressed, and in actual tumors poor circulation makes the stress even more severe on the tumor interior, which is usually hypoxic once the tumor has growth to more than 100 mm^3. […] As tumor cells try to run in […] glycolysis, they have a much larger glucose requirement than normal cells, and any hindrance of glucose import would be expected to stress cells, pushing them away from aerobic glycolysis, and towards oxidative phosphorylation to produce ATP, which in turn would almost certainly increase production of reactive oxygen intermediates (ROI) in these already abnormally metabolizing cells. The most common ways of disposing of ROI are via conjugation with glutathione, or reaction with various reducing enzymes, most of which rely on cysteine thiols for their RedOx ability. Both of these mechanisms require stressed cells to be able to import large amounts of cysteine, much of which is produced by the liver and put into circulation, as the high demand totally overwhelms endogenous cysteine biosynthesis (which requires methionine as its source of sulfur). […]

[1] = system: cells driven by mt-KRAS, mt-BRAF, and mt-EGFR; assay: Oxidative stress in cells, hydrogen peroxide levels as marker; type: cell-based; conditions: six hours post treatment
Source text: Signs of oxidative stress in cells were investigated after addition of increasing amounts of Compound A with hydrogen peroxide levels being chosen as a marker of increased oxidative stress. […] Consideration was given to ways of exploiting oxidative stress in these tumor types. Oxidative stress both contributes towards causing DNA damage, and makes DNA damage more difficult to repair. So a combination of an ODDER (e.g., Compound A) with a DNA damaging agent, such as radiation, may result in useful therapeutic regimen. Compound A and radiation was examined in vivo xenograft experiments in mt-EGFR, mt-KRAS, and mt-BRAF driven tumors. […] Thus, it is believed that ODDER compounds, such as Compound A, can be used in combination with radiation to treat localized tumors which express either mutant KRAS or mutant BRAF. […] Other ODDER compounds are also expected to have similar lower on target toxicity.

EGFR = target: T1, EGFR (Homo sapiens, UniProt P00533); assay: Loss/depletion of EGFR from treated tumor cells; type: cell-based
T1 construct: they all coexpress wild-type (wt)—EGFR along with the KRAS or BRAF oncogene; endogenous in cells
Source text: However, binding of ODDERs to EGFR prevents activated EGFR from forming the stable molecular complexes required to protect them from being rapidly internalized and degraded by the normal cellular protein degradation mechanisms, which is exactly what these molecules were designed to do. […] The kinase catalytic domain then unbinds both the product, a tyrosyl phosphate monoester, and the byproduct ADP, and can then bind further ATP and substrate as the catalytic cycle continues. There appear to be two major uses for tyrosine phosphorylation in a substrate molecule. The first is that conformational changes in the substrate protein are often driven by the conversion of a neutral, somewhat hydrophobic, tyrosine side chain into a highly hydrophilic phosphotyrosine, with two negative charges at physiological pH. The second is that there are binding sites on many proteins for phosphotyrosine residues, which induce new protein-protein interactions for the substrate protein, frequently changing its cellular localization and/or allowing it to assemble into new multiprotein complexes, both of which can lead the substrate protein to show very different activities after phosphorylation. […] This recruits the intermediate proteins which lead to the activation of the before mentioned signaling cascades. […]

xCT = assay: Loss of EGFR-chaperoned transporter xCT from cells; type: cell-based; conditions: along with EGFR
Source text: as §1

[2] = system: RKO BRAF V600E colorectal cancer tumors; assay: RKO xenograft, Compound A with or without radiation, tumor volume; type: in vivo, mice; conditions: mt-BRAF RKO, 100 mg/kg daily oral, 2 GY/day five days a week for 3 weeks
Method: (§2) Mice bearing locally advanced xenograft (PC9, RKO, or UMSCC74B) were treated with vehicle (control); daily oral gavage of Compound A (also referred to as DPI-503), radiation plus vehicle, or a combination of daily oral gavage of Compound A and radiation. Tumor volumes were measured using calipers at least three times a week.

[3] = system: tumors driven by mt-KRAS or mt-BRAF; assay: NC160 Tumor Cell panel; type: cell-based; conditions: several tumors driven by mt-KRAS or mt-BRAF
[4] = On target toxicity compared with EGFR inhibitors
[5] = system: osimertinib-resistant PC9 non-small cell lung cancer xenografts; assay: PC9 xenograft, Compound A with or without radiation, tumor volume; type: in vivo, mice
Method: as §2

[6] = system: UMSCC74B KRAS G12D head and neck squamous cell carcinoma tumor; assay: UMSCC74B xenograft, Compound A with or without radiation, tumor volume; type: in vivo, mice; conditions: mt-KRAS UMSCC74B; 30 mg/kg biw for 2 weeks oral; 2 GY/day five days a week for 3 weeks

T1 sequence (P00533 25-1210): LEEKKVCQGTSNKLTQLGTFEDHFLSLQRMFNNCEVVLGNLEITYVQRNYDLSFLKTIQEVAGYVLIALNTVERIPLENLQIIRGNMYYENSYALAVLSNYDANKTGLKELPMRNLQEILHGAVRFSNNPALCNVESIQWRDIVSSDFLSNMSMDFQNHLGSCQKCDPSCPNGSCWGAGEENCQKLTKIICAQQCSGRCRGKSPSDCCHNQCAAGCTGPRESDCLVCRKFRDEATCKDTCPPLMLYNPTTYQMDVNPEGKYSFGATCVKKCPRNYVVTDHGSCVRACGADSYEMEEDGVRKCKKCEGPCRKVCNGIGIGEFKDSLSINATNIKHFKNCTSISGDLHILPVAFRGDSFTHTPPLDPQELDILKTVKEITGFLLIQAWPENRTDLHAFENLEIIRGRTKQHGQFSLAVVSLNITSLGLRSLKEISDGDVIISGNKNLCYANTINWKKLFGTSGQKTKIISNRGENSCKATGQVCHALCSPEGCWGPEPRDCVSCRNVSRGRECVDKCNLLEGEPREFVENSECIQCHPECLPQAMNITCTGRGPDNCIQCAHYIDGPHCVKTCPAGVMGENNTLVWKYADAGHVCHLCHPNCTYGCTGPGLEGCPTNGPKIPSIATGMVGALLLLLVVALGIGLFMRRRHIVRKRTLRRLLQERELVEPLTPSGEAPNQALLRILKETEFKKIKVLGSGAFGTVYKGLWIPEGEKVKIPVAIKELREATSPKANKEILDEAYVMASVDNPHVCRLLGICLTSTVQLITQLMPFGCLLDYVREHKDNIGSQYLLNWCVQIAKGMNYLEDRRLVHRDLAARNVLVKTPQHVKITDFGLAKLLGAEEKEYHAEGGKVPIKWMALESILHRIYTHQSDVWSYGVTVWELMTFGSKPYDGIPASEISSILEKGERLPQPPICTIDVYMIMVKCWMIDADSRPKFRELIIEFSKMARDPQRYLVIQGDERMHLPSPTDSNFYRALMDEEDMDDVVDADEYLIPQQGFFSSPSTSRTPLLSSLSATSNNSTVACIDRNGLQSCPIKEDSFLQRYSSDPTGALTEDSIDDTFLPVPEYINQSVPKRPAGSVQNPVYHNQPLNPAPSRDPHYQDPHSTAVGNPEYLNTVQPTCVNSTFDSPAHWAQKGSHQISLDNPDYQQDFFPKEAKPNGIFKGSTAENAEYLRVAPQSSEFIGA

CN1CCC2(CC1)N=C(SCC(=O)Nc1cnc3ccccc3c1)C(c1ccc(Br)cc1)=N2 [Compound A]
ablation of SGLT1 transporter (SGLT1): ablated along with EGFR | H2O2 levels, dose dependence ([1]; increasing amounts of compound): dose-dependent increase | increase in cellular H2O2 levels ([1]; top dose tested): 2-4 fold | loss of EGFR from the cell surface (EGFR): loss of EGFR from the cell surface | ablation of xCT transporter (xCT): ablated along with EGFR | anti-tumor effect of Compound A combined with radiation (tumor volume) [2]: unexpectedly exhibited efficacy; also recorded: strongly increased | anti-proliferative activity [3]: considerable anti-proliferative activity | on target toxicity [4]: much less on target toxicity than EGFR inhibitors | active tumor by gross pathology or histochemistry ([5]; Day 155, end of experiment, treatment group not named, presumably combination): active tumor could not be detected | anti-tumor effect of Compound A combined with radiation (tumor volume) ([5]; mt-EGFR PC9, 75 mg/kg five times a week for 3 weeks oral, 2 Gy/day five times a week for 3 weeks): unexpectedly exhibited efficacy; also recorded: strongly increased | anti-tumor effect of Compound A combined with radiation (tumor volume) [6]: unexpectedly exhibited efficacy; also recorded: strongly increased

— patent US20240197711A1, “Combination Therapy for Cancer Treatment” (THE REGENTS OF THE UNIVERSITY OF MICHIGAN, priority 2021, published 2024)
